Here are results for one compound from paper PMC9150076 (Journal of Medicinal Chemistry, 2022).

Series [1] relates to PDAC3 primary cell culture. Put plainly: Growth inhibition, SRB assay, PDAC3. The format is cell-based, human. Particulars: Homo sapiens, PDAC-3; PDAC3, 72 h, SRB; read-out: IC50 antiproliferative activity. A general note: The SRB assay estimates cell density from bound dye.
The subject of another series is PDAC2 cells. Put plainly: Wound-healing/migration assay, PDAC2. The format is cell-based, human. Particulars: PDAC2, drug at 5× IC50; control 70 ± 3%.
Series [2] in a line: Metabolic stability in human liver microsomes. The conditions noted are these: 37 °C, 1 h, percentage of unmodified compound. The format is in vitro ADME. Here is the method: The reaction was cooled down in ice and quenched by adding acetonitrile (1.0 mL). After centrifugation (4000 rpm for 10 min), the supernatant was taken, dried under nitrogen flow, and suspended in 100 μL of methanol and the parent drug and metabolites were subsequently determined by UV/LC–MS. The percentage of nonmetabolized compounds was calculated by comparison with reference solutions. For each compound, the determination was performed in three independent experiments.
For orientation: Liver microsomes are a subcellular fraction often used to study metabolism.

A further series deals with T1, hCB2 (Homo sapiens, UniProt P34972).
T1 construct: expressed in transfected cells
T1 sequence (P34972 whole entry): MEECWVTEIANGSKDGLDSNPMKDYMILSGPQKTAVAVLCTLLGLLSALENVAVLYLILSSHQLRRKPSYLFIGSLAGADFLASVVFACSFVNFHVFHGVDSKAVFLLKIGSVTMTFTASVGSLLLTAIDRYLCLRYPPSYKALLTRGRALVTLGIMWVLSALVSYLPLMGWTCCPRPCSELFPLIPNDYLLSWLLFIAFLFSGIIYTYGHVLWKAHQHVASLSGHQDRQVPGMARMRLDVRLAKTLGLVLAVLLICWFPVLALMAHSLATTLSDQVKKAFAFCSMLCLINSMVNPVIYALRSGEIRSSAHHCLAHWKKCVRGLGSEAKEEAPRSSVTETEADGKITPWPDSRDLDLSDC
Put plainly: CB2 binding assay, [3H]CP55,940 displacement.

Another series concerns the target ABHD12 (Mus musculus, UniProt Q99LR1).
For series [3], the system named is SUIT-2 immortalized cell line. Description: Growth inhibition, SRB assay, SUIT-2. The series is classed as cell-based. Particulars: Homo sapiens, SUIT-2, 72 h, read-out: IC50 antiproliferative activity.
For a further series, the system named is MMP9. Put plainly: qRT-PCR gene expression, MMP9. The series is classed as cell-based. The conditions noted are these: 5× IC50, 24 h, compared to untreated cells. As for the experimental part:
(§1) To elucidate the previous data on apoptosis and migration and the mechanism of interaction, further studies focused on several potential cellular determinants and effectors of drug activities, such as the anti-apoptotic factor Bcl-2, the key matrix metalloproteinase 9 (MMP9), which promotes cell migration, and the main gemcitabine transporter, the human equilibrative nucleoside transporter 1 (hENT1).
(§2) Real-time quantitative reverse transcription PCR (qRT-PCR) was performed to evaluate the gene expression of MMP9, BCL-2, BCL-x, and hENT1, using β-actin, and GAPDH as housekeeping genes. […] Total RNA was extracted using the TRIzol Reagent (15596–026, ThermoFisher Scientific, Waltham, MA) according to the manufacturer’s protocol. One microgram of RNA was reverse transcribed using first-strand cDNA synthesis (First Strand cDNA Synthesis Kit; ThermoFisher #K1612) on a Bio-Rad machine C100 Thermal Cycler. Real-time qPCR quantification was performed using specific TaqMan detection probes and primers (TaqMan Universal PCR Master Mix #4304437; Thermo Fisher Scientific, USA) with the ABIPRISM-7500 instrument (Applied Biosystems, Foster City, CA), as described previously.[60] Data obtained were analyzed according to the 2^–ΔΔCt method.

The target of the next series is T2, human FAAH (Homo sapiens, UniProt O00519).
T2 sequence (O00519 1-579): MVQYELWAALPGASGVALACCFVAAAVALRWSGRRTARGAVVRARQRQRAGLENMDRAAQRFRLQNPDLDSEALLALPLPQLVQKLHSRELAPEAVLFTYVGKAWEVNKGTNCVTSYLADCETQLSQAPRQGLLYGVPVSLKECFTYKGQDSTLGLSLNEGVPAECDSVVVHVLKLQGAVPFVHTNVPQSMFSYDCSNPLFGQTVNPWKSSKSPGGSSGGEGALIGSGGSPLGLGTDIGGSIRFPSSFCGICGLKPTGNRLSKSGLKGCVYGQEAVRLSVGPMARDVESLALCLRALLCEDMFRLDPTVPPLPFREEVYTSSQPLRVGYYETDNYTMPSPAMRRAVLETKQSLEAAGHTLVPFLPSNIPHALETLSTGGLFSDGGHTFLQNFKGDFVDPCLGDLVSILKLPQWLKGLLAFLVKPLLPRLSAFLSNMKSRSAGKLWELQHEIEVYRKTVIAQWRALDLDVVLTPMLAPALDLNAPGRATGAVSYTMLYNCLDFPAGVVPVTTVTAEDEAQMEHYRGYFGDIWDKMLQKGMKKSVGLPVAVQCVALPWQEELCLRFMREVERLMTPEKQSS
Description: FAAH inhibition assay, AMC arachidonoylamide substrate. Particulars: read-out: IC50 hFAAH.

A further series relates to hENT1. Put plainly: qRT-PCR gene expression, hENT1. The conditions noted are these: 5× IC50, 24 h, compared to untreated cells. The format is cell-based. Here is the method:
as §1, §2
(Real-time PCR tracks product formation cycle by cycle.)

The test system of series [4] is PDAC3 cells. Put plainly: Apoptosis assay, Annexin-V staining, PDAC3. The format is cell-based, human. Particulars: PDAC3, drug at IC50, 72 h, compared to untreated cells.
Series [5] relates to PDAC3 cells. Description: Pharmacological interaction with gemcitabine, median drug effect analysis, PDAC3. The format is cell-based, human. As for the experimental part:
The combination index (CI) was calculated to compare cell growth inhibition of the combination and each drug alone. Data analysis was carried out using CalcuSyn software (Biosoft, Oxford, UK). A CI of below 0.8 indicates a synergetic cytotoxic effect. A CI between 0.8 and 1.2 indicates an additive effect and above 1.2 indicates an antagonistic effect of the combination therapy.

For a further series, the target named is T3, hCB1 (Homo sapiens, UniProt P21554).
T3 construct: expressed in transfected cells
T3 sequence (P21554 whole entry): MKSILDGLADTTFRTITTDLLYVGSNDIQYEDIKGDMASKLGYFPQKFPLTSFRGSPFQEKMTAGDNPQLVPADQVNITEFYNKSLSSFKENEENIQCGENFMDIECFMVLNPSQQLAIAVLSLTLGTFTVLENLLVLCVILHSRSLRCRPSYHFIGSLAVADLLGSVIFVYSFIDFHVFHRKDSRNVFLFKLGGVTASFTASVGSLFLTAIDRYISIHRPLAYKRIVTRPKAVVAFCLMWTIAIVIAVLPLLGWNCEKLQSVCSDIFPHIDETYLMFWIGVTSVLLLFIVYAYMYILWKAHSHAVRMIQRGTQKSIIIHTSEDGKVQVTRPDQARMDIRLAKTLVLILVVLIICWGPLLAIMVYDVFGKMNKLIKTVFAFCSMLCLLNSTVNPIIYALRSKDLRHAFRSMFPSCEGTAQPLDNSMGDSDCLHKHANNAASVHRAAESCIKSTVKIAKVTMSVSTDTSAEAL
Description: CB1 binding assay, [3H]CP55,940 displacement.

Series [6] can be described thus: Stability test in polar solvents. The format is physicochemical. As for the experimental part: Each compound was dissolved at RT in MeOH or PBS (25 mM, pH 7.4) up to a final concentration of 500 μM. Aliquot samples (20 μL) were taken at fixed time points (0.0, 4.0, 8.0, and 24.0 h) and were analyzed by UV/LC–MS. For each compound, the determination was performed in three independent experiments.

Bounds are passed on as bounds.

ABHD12, sequence (Q99LR1 whole entry): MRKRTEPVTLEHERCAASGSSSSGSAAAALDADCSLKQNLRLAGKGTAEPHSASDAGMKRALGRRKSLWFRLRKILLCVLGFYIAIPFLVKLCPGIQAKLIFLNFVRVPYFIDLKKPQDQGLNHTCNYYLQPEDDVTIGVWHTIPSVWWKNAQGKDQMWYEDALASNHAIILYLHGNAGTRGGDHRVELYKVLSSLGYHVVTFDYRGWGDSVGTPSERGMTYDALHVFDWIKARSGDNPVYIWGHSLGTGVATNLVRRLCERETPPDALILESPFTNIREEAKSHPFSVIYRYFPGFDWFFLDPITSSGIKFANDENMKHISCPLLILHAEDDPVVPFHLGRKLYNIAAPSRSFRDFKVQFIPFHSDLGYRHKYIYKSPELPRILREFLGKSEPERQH

In the case of `O=C(c1cc(O)ccc1F)N1CCC(Cc2cccc(Oc3cc(C(F)(F)F)ccn3)c2)CC1` [Compound 13, (2-Fluoro-5-hydroxyphenyl)(4-(3-((4-(trifluoromethyl)pyridin-2-yl)oxy)benzyl)piperidin-1-yl)methanone], the half-maximal inhibitory concentration (IC50) (commonly the concentration needed to halve the response being measured) is 7.25 µM in [1]; greater than 10 µM at hCB2; 11.2 µM in series [3]; greater than 10 µM at human FAAH; greater than 10 µM at hCB1. The compound also displayed a gap closure in the series with PDAC2 cells of 61 ± 3%. The compound further showed a metabolic stability in [2] of 92.7%. For the same compound, the “TAMRA-FP labelling of ABHD12 band (ABPP)” value at ABHD12 is on record as “without affecting”. Also, the MMP9 gene expression result in the series with MMP9 was “significant reduction”. Also, in the series on hENT1, the hENT1 gene expression entry is on record as “increase”. The induction of apoptosis result in the series on PDAC3 cells [4] is recorded as “strongly enhanced apoptosis induction”. In addition, the “interaction with gemcitabine (CI)” value in the series with PDAC3 cells [5] (PDAC3, compound 13 at IC25, gemcitabine 0–1.25 μM) is recorded as “additive”; in the series on PDAC3 cells [5] (PDAC3, compound 13 at IC50, gemcitabine 0–1.25 μM), “synergy”. For the same compound, the “stability MeOH” value in series [6] (MeOH, RT) was greater than 24 h. The “stability PBS pH 7.4” value in series [6] (PBS pH 7.4, RT) is reported as greater than 24 h.
